Experimental data from US20240010635A1, “NOVEL INDIRUBIN DERIVATIVES HAVING HETEROBICYCLIC MOIETIES AND THE USE THEREOF” (priority 2022, published 2024).

Legend:
Format in all cases: cell-based
MV4-11 = experiment: Cell proliferation inhibition in AML cell line MV4-11 (Alamar Blue); conditions: Homo sapiens, MV4-11, 72 hours, read-out: Cell proliferation inhibitory activity (GI50) MV4-11
Description: (§1) Cell proliferation inhibition experiments on acute myeloid leukemia (AML) cell lines tested FLT3 inhibitory activity using MV4-11, Molm-13, and Molm-14 cells, which are FLT3-ITD-expressed AML cell lines. The origin of all cell lines is human-derived cell lines, and the place of purchase and culture conditions of each cell line are as follows.
(§2) MV4-11 cells were purchased form the American Type Culture Collection (ATCC, Rockville, MD, USA, cat #CRL-9591), Molm-13 (DSMZ, cat #ACC554), Molm-14 (DSMZ, cat #ACC777), and then cultured in RPMI 1640 medium (Corning Co. 10-040-CV) supplemented with 10% fetal bovine serum, 1% penicillin/streptomycin and 4 mM L-glutamine (Life Technology, GrandIsland, NY).
(§3) Cell viability was evaluated by Resazurin redox-based analysis method with Alamar Blue Assay Kit (Invitrogen, USA). Specifically, for MV4-11, Molm-13 and Molm-14 cells, 8000 cells were plated on 384-well plates in 45 μl of medium. Compounds were treated with dimethyl sulfoxide (DMSO) as a negative control group. After 3 days (72 hours) of compound addition, 5 μl of Alamar Blue kit reagent was added to each well of 384-well plate and incubated at 37° C. for 2 hours in a humidified CO2 incubator. After incubation, fluorescence density (Flu) was measured at a wavelength of 544 nm and 590 nm using SpectraMax iD3 Multi Mode Microplate Reader (Molecular Devices, ID3-STD). GI50 was calculated by nonlinear regression using Prism version 5.01 (GraphPad, LaJolla, CA, USA).

Molm-13 = experiment: Cell proliferation inhibition in AML cell line Molm-13 (Alamar Blue); conditions: Homo sapiens, Molm-13, 72 hours, read-out: Cell proliferation inhibitory activity (GI50) Molm-13
Description: as §1, §2, §3

Molm-14 = experiment: Cell proliferation inhibition in AML cell line Molm-14 (Alamar Blue); conditions: Homo sapiens, Molm-14, 72 hours, read-out: Cell proliferation inhibitory activity (GI50) Molm-14
Description: as §1, §2, §3

Row | Compound | GI50 (MV4-11) | GI50 (Molm-13) | GI50 (Molm-14)
1 | O=C1Nc2cc(Br)ccc2/C1=C1/Nc2ccccc2/C1=N\OCCN1CCNCC1 [Comparative Example 1, reference compound] | 20 nM | 11.2 nM | 9.36 nM
2 | O=C1Nc2ccc(Br)cc2/C1=C1/Nc2ccccc2/C1=N\OCCN1CCNCC1 [Comparative Example 2, reference compound] | 7 nM | 4.08 nM | 4.08 nM
3 | O=C1Nc2ccc(F)cc2/C1=C1/Nc2ccccc2/C1=N\OCCN1CCNCC1 [Comparative Example 3, reference compound] | 3.7 nM | 2.53 nM | 1.6 nM
